According to the NIST ThermoML archive (doi:10.1021/je700546r):
Values joined by “and” are separate entries in the source; they are usually repeats but may differ in a detail not shown here. Identical values can stand only once.

Assay: molar heat capacity at saturation pressure
Details: Crystal 3, Small (less than 1 g) adiabatic calorimetry

ON=C1CCCCC1 [cyclohexanone oxime]
Details	molar heat capacity
4.9 K	0.339 J/K/mol
5.136 K	0.3967 J/K/mol
5.378 K	0.4649 J/K/mol
5.624 K	0.5419 J/K/mol
5.878 K	0.6278 J/K/mol
6.165 K	0.7333 J/K/mol
6.485 K	0.8621 J/K/mol
6.812 K	1.006 J/K/mol
7.147 K	1.167 J/K/mol
7.488 K	1.338 J/K/mol
7.836 K	1.53 J/K/mol
8.187 K	1.735 J/K/mol
8.542 K	1.956 J/K/mol
8.902 K	2.19 J/K/mol
9.268 K	2.438 J/K/mol
9.636 K	2.708 J/K/mol
10 K	2.981 J/K/mol
10.48 K	3.361 J/K/mol
11.06 K	3.83 J/K/mol
11.64 K	4.325 J/K/mol
12.23 K	4.854 J/K/mol
12.83 K	5.408 J/K/mol
13.43 K	5.992 J/K/mol
14.03 K	6.572 J/K/mol
14.64 K	7.153 J/K/mol
15.26 K	7.796 J/K/mol
15.98 K	8.601 J/K/mol
16.81 K	9.497 J/K/mol
17.65 K	10.37 J/K/mol
18.49 K	11.28 J/K/mol
19.34 K	12.18 J/K/mol
20.19 K	13.08 J/K/mol
21.32 K	14.35 J/K/mol
22.74 K	15.89 J/K/mol
24.16 K	17.46 J/K/mol
25.59 K	19 J/K/mol
27.02 K	20.5 J/K/mol
28.49 K	22 J/K/mol
30.12 K	23.63 J/K/mol
31.73 K	25.22 J/K/mol
33.5 K	26.88 J/K/mol
35.28 K	28.48 J/K/mol
37.06 K	30.01 J/K/mol
38.84 K	31.47 J/K/mol
40.63 K	32.89 J/K/mol
42.51 K	34.38 J/K/mol
44.49 K	35.9 J/K/mol
46.48 K	37.34 J/K/mol
48.47 K	38.76 J/K/mol
50.46 K	40.11 J/K/mol
52.45 K	41.42 J/K/mol
54.45 K	42.64 J/K/mol
56.45 K	43.84 J/K/mol
58.46 K	45.02 J/K/mol
60.47 K	46.16 J/K/mol
62.48 K	47.28 J/K/mol
64.5 K	48.37 J/K/mol
66.51 K	49.44 J/K/mol
68.52 K	50.51 J/K/mol
70.54 K	51.55 J/K/mol
72.56 K	52.59 J/K/mol
74.59 K	53.59 J/K/mol
76.61 K	54.6 J/K/mol
78.65 K	55.6 J/K/mol
79.94 K	56.26 J/K/mol
80.68 K	56.58 J/K/mol
81.67 K	57.04 J/K/mol
82.2 K	57.24 J/K/mol
82.71 K	57.54 J/K/mol
83.39 K	57.84 J/K/mol
84.24 K	58.2 J/K/mol
84.75 K	58.47 J/K/mol
85.1 K	58.59 J/K/mol
86.15 K	59.05 J/K/mol
86.83 K	59.4 J/K/mol
88.07 K	59.96 J/K/mol
88.55 K	60.2 J/K/mol
90 K	60.85 J/K/mol
90.28 K	61.01 J/K/mol
91.95 K	61.75 J/K/mol
92.01 K	61.8 J/K/mol
93.75 K	62.62 J/K/mol
93.89 K	62.67 J/K/mol
95.49 K	63.42 J/K/mol
95.85 K	63.56 J/K/mol
97.23 K	64.21 J/K/mol
97.81 K	64.45 J/K/mol
98.97 K	65.03 J/K/mol
99.77 K	65.37 J/K/mol
100.72 K	65.83 J/K/mol
101.74 K	66.25 J/K/mol
102.52 K	66.6 J/K/mol
103.72 K	67.14 J/K/mol
104.37 K	67.44 J/K/mol
105.7 K	68.04 J/K/mol
106.23 K	68.29 J/K/mol
107.69 K	68.92 J/K/mol
108.09 K	69.08 J/K/mol
109.68 K	69.81 J/K/mol
109.95 K	69.92 J/K/mol
111.68 K	70.69 J/K/mol
111.81 K	70.76 J/K/mol
113.68 K	71.57 J/K/mol and 71.56 J/K/mol
115.55 K	72.37 J/K/mol
115.69 K	72.45 J/K/mol
117.41 K	73.2 J/K/mol
117.7 K	73.35 J/K/mol
119.29 K	74.03 J/K/mol
119.71 K	74.22 J/K/mol
121.16 K	74.85 J/K/mol
121.72 K	75.08 J/K/mol
123.03 K	75.63 J/K/mol
123.73 K	75.98 J/K/mol
124.91 K	76.46 J/K/mol
125.75 K	76.86 J/K/mol
126.79 K	77.29 J/K/mol
127.76 K	77.72 J/K/mol
128.67 K	78.11 J/K/mol
129.79 K	78.6 J/K/mol
130.55 K	78.91 J/K/mol
131.81 K	79.49 J/K/mol
132.43 K	79.75 J/K/mol
133.83 K	80.38 J/K/mol
134.31 K	80.58 J/K/mol
135.86 K	81.28 J/K/mol
136.2 K	81.42 J/K/mol
137.88 K	82.16 J/K/mol
138.09 K	82.25 J/K/mol
139.9 K	83.05 J/K/mol
139.98 K	83.08 J/K/mol
141.87 K	83.93 J/K/mol
141.92 K	83.95 J/K/mol
143.76 K	84.77 J/K/mol
143.95 K	84.85 J/K/mol
145.65 K	85.62 J/K/mol
145.97 K	85.73 J/K/mol
147.54 K	86.49 J/K/mol
148 K	86.67 J/K/mol
149.44 K	87.35 J/K/mol
150.03 K	87.59 J/K/mol
151.34 K	88.17 J/K/mol
152.05 K	88.52 J/K/mol
153.24 K	89.05 J/K/mol
154.08 K	89.42 J/K/mol
155.13 K	89.89 J/K/mol
156.1 K	90.34 J/K/mol
157.03 K	90.77 J/K/mol
158.12 K	91.27 J/K/mol
158.93 K	91.65 J/K/mol
160.13 K	92.24 J/K/mol
160.83 K	92.53 J/K/mol
162.15 K	93.18 J/K/mol
162.73 K	93.45 J/K/mol
164.16 K	94.14 J/K/mol
164.63 K	94.35 J/K/mol
166.17 K	95.08 J/K/mol
166.54 K	95.25 J/K/mol
168.18 K	96.07 J/K/mol
168.44 K	96.2 J/K/mol
170.18 K	97.05 J/K/mol
170.35 K	97.13 J/K/mol
172.19 K	98.05 J/K/mol
172.26 K	98.07 J/K/mol
174.17 K	99.06 J/K/mol
174.19 K	99.05 J/K/mol
176.08 K	100.02 J/K/mol
176.19 K	100.08 J/K/mol
177.99 K	101.03 J/K/mol
178.2 K	101.13 J/K/mol
179.9 K	102.04 J/K/mol
180.2 K	102.17 J/K/mol
181.81 K	103.07 J/K/mol
182.19 K	103.23 J/K/mol
183.72 K	104.11 J/K/mol
184.18 K	104.31 J/K/mol
185.64 K	105.14 J/K/mol
186.16 K	105.44 J/K/mol
187.55 K	106.25 J/K/mol
188.14 K	106.57 J/K/mol
189.46 K	107.37 J/K/mol
190.12 K	107.71 J/K/mol
191.37 K	108.48 J/K/mol
192.1 K	108.92 J/K/mol
193.29 K	109.62 J/K/mol
194.08 K	110.15 J/K/mol
195.2 K	110.84 J/K/mol
196.05 K	111.36 J/K/mol
197.13 K	112.05 J/K/mol
198.02 K	112.6 J/K/mol
199.05 K	113.28 J/K/mol
199.97 K	113.87 J/K/mol
200.97 K	114.62 J/K/mol
202 K	115.31 J/K/mol
202.89 K	116 J/K/mol
203.92 K	116.79 J/K/mol
204.81 K	117.51 J/K/mol
205.74 K	118.31 J/K/mol
206.72 K	119.13 J/K/mol
207.56 K	119.91 J/K/mol
208.63 K	120.93 J/K/mol
209.36 K	121.66 J/K/mol
210.55 K	122.71 J/K/mol
211.17 K	123.38 J/K/mol
212.46 K	124.68 J/K/mol
212.97 K	125.27 J/K/mol
214.38 K	126.63 J/K/mol
214.76 K	127.11 J/K/mol
216.3 K	128.63 J/K/mol
216.54 K	128.94 J/K/mol
217 K	129.41 J/K/mol
217.73 K	130.26 J/K/mol
218.21 K	130.69 J/K/mol
218.32 K	130.87 J/K/mol
218.98 K	131.5 J/K/mol
219.5 K	132.12 J/K/mol
220.09 K	132.7 J/K/mol
220.14 K	132.72 J/K/mol
220.87 K	133.52 J/K/mol
221.26 K	133.99 J/K/mol
222.06 K	134.69 J/K/mol
222.75 K	135.43 J/K/mol
223.02 K	135.78 J/K/mol
